Values quoted from earlier work as cited in US20200306268A1, “VITAMIN COMPOSITION” (Tempus Bio Technologies LLC, priority 2019, published 2020).

Compound: C=C1CC[C@H](O)C/C1=C/C=C1\CCC[C@]2(C)[C@@H]([C@H](C)CCCC(C)C)CC[C@@H]12 [vitamin D3, (3β,5Z,7E)-9,10-secocholesta-5,7,10(19)-trien-3-ol]
- solubility in MCT oil (MCT oil): very soluble
- solubility in water (water): not soluble
